From article PMC8786932, “Bicyclic azetidines target acute and chronic stages of Toxoplasma gondii by inhibiting parasite phenylalanyl t-RNA synthetase” (Nature Communications, 2022)
Values joined by “and” are separate entries in the source; they are usually repeats but may differ in a detail not shown here. Identical values can stand only once. Like-named read-outs stand apart in the source and are kept apart here.

Tests used:
[1] = target: N. caninum expressing lacZ; test: Neospora caninum β-galactosidase assay; format: cell-based
Method: β-galactosidase assays were conducted using tissue culture grade 96-well plates (TPP) containing confluent monolayers of HFF cells. A 10-point compound dilution series (2-fold) for each compound was generated as described above (2X concentration, 0.1% final DMSO). Growth of the N. caninum strain expressing lacZ was monitoring using a β-galactosidase (β-gal) assay as described in[21] with the following modifications. N. caninum lacZ expressing parasites (1 × 10^3) were added (in 100 μL volume) into 96-well plates containing HFF monolayers to reach final compound concentration (5.0 μM to 0.002 μM in 200 μL total volume). Plates were incubated at 37 °C, 5% CO2 for 72 h prior to completing β-gal assay as previously described[23],[27],[51]. Briefly, parasite containing monolayers were lysed with 1.0% Triton X-100 and β-gal activity determined by adding 1 mM chlorophenolred-β-D-galactopyranoside followed by monitoring absorption at 570 nm on a Cytation 3 multi-mode imager (BioTek), as described.

C. parvum = conditions: Fig 2A Tg_Pf_Cp EC50s; previously reported values, reference not visible in the shown part; cited from earlier work
[2] = tested on: blood-stage P. falciparum; conditions: Fig 2A Tg_Pf_Cp EC50s; previously reported values, reference not visible in the shown part; cited from earlier work
[3] = target: T. gondii tachyzoites (type II ME49-FLuc); test: Luciferase-based tachyzoite growth assay; format: cell-based, Toxoplasma gondii; set-up: EC50 log inhib vs normalized response: unit: µM; conditions: for EC50 log inhib vs normalized response: Fig 1A rank order, T. gondii growth
Method: All assays were carried out in a 96-well plate format containing confluent HFF monolayers to support parasite growth. To avoid edge effects, only the inner 60 wells of each plate were used. All compounds described were provided by the Broad Institute as 10 mM stocks in 100% DMSO and stored at −80 °C prior to use. Pyrimethamine (Sigma-Aldrich) was prepared as 5 mM stock in 100% DMSO and stored at −20 °C prior to use.
All statistical analyses were conducted using Prism 9 (GraphPad Software, Inc.). Dose–response inhibition curves for parasite and host cell toxicity screens (EC50 values) were generated using (Log(inhibitor) vs. normalized response—Variable slope) function. […] For multiple comparisons, two-way ANOVA analysis function using either Sidák’s multiple comparisons test or Dunnett’s multiple comparisons test was applied as indicated.

[4] = tested on: ex vivo T. gondii ME49-FLuc bradyzoites from tissue cysts of chronically infected mice; test: Ex vivo bradyzoite treatment assay (plaque assay); format: cell-based, Toxoplasma gondii; conditions: Fig 5H top 4, replicates, listed as Pyr
Method: The brains from CBA/J mice chronically infected with the ME49-FLuc strain were harvested, homogenized, and tissue cysts isolated on Percoll gradients, as described previously[9],[27]. Following isolation, purified tissue cysts were treated with acid-pepsin solution ([…] sodium chloride (NaCl), 60 mM hydrochloric acid (HCl) and freshly made pepsin (0.1 mg/mL in 1xPBS) for 10 min at 37 °C. Following acid-pepsin treatment and addition of neutralization buffer (94 mM sodium carbonate (Na2CO3), liberated bradyzoites were equally distributed into 6-well plates with 5 mL culture media containing compounds or vehicle control (0.1–0.2% DMSO final concentration). Plates were incubated undisturbed for 12–14 days followed by fixation in 100% ethanol (ETOH) for 5 min at RT, rinsing with tap water, staining in 0.1% crystal violet solution for 10 min at RT, rinsing in water and air drying. Plaques were quantified on a Zeiss AxioObserver microscope equipped with a ×2.5 objective (Department of Molecular Microbiology Imaging Facility at the Washington University School of Medicine).

[5] = tested on: T. gondii ME49-FLuc tissue cysts; format: in vivo, Ifngr1-/- mice; conditions: mouse, in vivo
Method: (§1) Ifngr1^−/− (B6.129S7-Ifngr1 ^tm1Agt /J) and CBA/J mice were purchased from Jackson Laboratory and bred locally at Washington University. Animal studies were conducted according to the U.S. Public Health Service policy on human care and use of laboratory animals. Animals were maintained in facilities approved by the Association for Assessment and Accreditation of Laboratory Animal Care. Studies were approved by Division of Comparative Medicine, Washington University. […] Animals were maintained on a 12:12 light cycle, room temperature maintained at 70℉ ± 2℉, and room humidity maintained at 50% ± 20%.
(§2) Testing of compounds to prevent reactivation of chronic infection was […] to test the efficacy of PheRS inhibitors against chronic infection. In both cases, male and female C57BL/6 Ifngr1^−/− mice were infected by oral gavage with 5 cysts of the ME49-Fluc strain isolated from chronically infected CBA/J mice. […] Animals were monitored for survival and weight loss for 30 days post-treatment.

[6] = tested on: T. gondii ME49-FLuc chronic infection; format: in vivo, Ifngr1-/- mice; conditions: mouse, in vivo
Method: as §1, §2

[7] = Fig S2 source data, read-out: N. caninum (EC50, Fig S2 source data)
[8] = Table S3, 72 h, lacZ, read-out: N. caninum EC50
[9] = Fig S2 source data, read-out: T. gondii (EC50, Fig S2 source data)
[10] = Table S1, ME49-FLuc tachyzoites, read-out: T. gondii EC50
[11] = Toxoplasma gondii, Table S1, ME49-FLuc tachyzoites, read-out: T. gondii EC50
[12] = Fig 2A Tg_Pf_Cp EC50s, read-out: EC50 T. gondii
[13] = Toxoplasma gondii, Fig. 2b, stereoisomers of BRD3444, mean of two biological replicates, read-out: Tg EC50

Row | Structure (SMILES) | EC50 [2] | EC50 log inhib vs normalized response [3] | EC50 [3, 10] | EC50 [3, 11] | EC50 [3, 12] | also measured
1 | COc1ccc(NC(=O)N2CCCCCN3[C@H](CO)[C@H](c4ccc(C#Cc5ccccc5)cc4)[C@@H]3C2)cc1 [BRD0185] | 0.087 µM | 0.1693 | 0.169 µM |  |  | EC50 [1, 7]: 0.157 µM; EC50 [1, 8]: 0.156 µM; EC50 (C. parvum): 0.033 µM; EC50 [3, 9]: 0.169 µM
2 | COc1ccc(NC(=O)N2CCCCN3[C@@H](CO)[C@@H](c4ccc(C#Cc5ccccc5)cc4)[C@@H]3C2)cc1 [BRD2430] |  | 1.548 |  | 1.55 µM |  | 
3 | COc1ccc(NC(=O)N2CCCCN3[C@H](CO)[C@@H](c4ccc(C#Cc5ccccc5)cc4)[C@@H]3C2)cc1 [BRD2574] |  | 1.487 |  | 1.49 µM |  | 
4 | COc1ccc(NC(=O)N2CCCCN3[C@H](CO)[C@H](c4ccc(C#Cc5ccccc5)cc4)[C@]3(CO)C2)cc1 [BRD2936] | 1.87 µM | 1.687 |  |  | 1.69 µM | EC50 (C. parvum): 1.08 µM
5 | COc1ccc(NC(=O)N2CCCCN3[C@H](CO)[C@H](c4ccc(C#Cc5ccccc5)cc4)[C@H]3C2)cc1 [BRD3182] |  | 1.697 |  | 1.7 µM |  | 
6 | COc1ccc(NC(=O)N2CCCCN3[C@H](C2)[C@@H](c2ccc(C#Cc4ccccc4)cc2)[C@@H]3CO)cc1 [BRD3801] |  | 4.096 |  | 4.1 µM |  | 
7 | COc1ccc(NC(=O)N2CCCCN3C[C@H](c4ccc(C#Cc5ccccc5)cc4)[C@@H]3C2)cc1 [BRD3914] | 0.013 µM | 0.07697 | 0.076 µM |  |  | EC50 [1, 7]: 0.193 µM; EC50 [1, 8]: 0.193 µM; EC50 (C. parvum): 0.062 µM; EC50 [3, 9]: 0.077 µM
8 | COc1ccc(NC(=O)N2CCCCN3[C@H](C2)[C@H](c2ccc(C#Cc4ccccc4)cc2)[C@@H]3CO)cc1 [BRD4569] |  | 3.376 |  | 3.38 µM |  | EC50 [3, 13]: 3.37 µM
9 | COc1ccc(NC(=O)N2CCCCN3[C@H](CO)[C@H](c4ccc(C#Cc5ccccc5C#N)cc4)[C@@H]3C2)cc1 [BRD4873] | 0.261 µM | 0.2134 | 0.213 µM |  | 0.213 µM | 
10 | COc1ccc(NC(=O)N2C[C@@H](O)[C@@H](O)CN3[C@H](CN(C)C)[C@H](c4ccc(C#Cc5ccccc5)cc4)[C@@H]3C2)cc1 [BRD5018] | 0.013 µM | 0.03927 | 0.039 µM |  |  | EC50 [1, 7]: 0.0299 µM; EC50 [1, 8]: 0.029 µM; EC50 [3, 9]: 0.0393 µM
11 | OC[C@@H]1[C@H](c2ccc(C#Cc3ccccc3)cc2)[C@@H]2CN(c3nc4ccccc4s3)CCCCN12 [BRD5349] | 8.32 µM | 3.944 |  |  | 3.94 µM | 
12 | COc1ccc(NC(=O)N2CCCCN3[C@H](CO)[C@H](c4ccc(C#CC5CC5)cc4)[C@@H]3C2)cc1 [BRD5774] | 12.2 µM | 1.609 |  |  | 1.61 µM | 
13 | O=C(Nc1cccc(F)c1)N1CCCCN2[C@H](CO)[C@H](c3ccc(C#Cc4cccnc4)cc3)[C@@H]2C1 [BRD5999] |  | 0.4926 | 0.492 µM |  |  | 
14 | COc1ccc(NC(=O)N2CCCCN3[C@H](CN4CCN(C)CC4)[C@H](c4ccc(C#Cc5ccccc5)cc4)[C@@H]3C2)cc1 [BRD6479] | 0.158 µM | 0.4249 | 0.424 µM |  | 0.425 µM | 
15 | COc1ccc(NC(=O)N2CCCCN3[C@H](CO)[C@@H](c4ccc(C#Cc5ccccc5)cc4)[C@H]3C2)cc1 [BRD8194] |  | 2.955 |  | 2.96 µM |  | 
16 | O=C(NC1CCC1)N1CCCCN2[C@H](CO)[C@H](c3ccc(C#Cc4ccccc4)cc3)[C@@H]2C1 [BRD8260] | 19.5 µM | 2.575 |  |  | 2.58 µM | 
17 | COc1ccc(NC(=O)N2CCCCN3[C@H](CN4CCC4)[C@H](c4ccc(C#Cc5ccccc5)cc4)[C@@H]3C2)cc1 [BRD8493] | 0.116 µM | 0.4416 | 0.441 µM |  | 0.442 µM | 
18 | COc1ccc(NC(=O)N2CCCCN3[C@@H](CO)[C@H](c4ccc(C#Cc5ccccn5)cc4)[C@@H]3C2)cc1 [BRD9257] | 0.155 µM | 0.6463 | 0.646 µM |  | 0.646 µM | 
19 | COc1ccc(NC(=O)N2CCCN3[C@H](CO)[C@H](c4ccc(C#Cc5ccccc5)cc4)[C@@H]3C2)cc1 [BRD9599] | 0.85 µM | 1.748 |  |  | 1.75 µM | EC50 (C. parvum): 0.25 µM
20 | COc1ccc(NC(=O)N2CCCCN3[C@@H](CO)[C@H](c4ccc(C#Cc5ccccc5)cc4)[C@@H]3C2)cc1 [BRD9995] |  | 0.1187 |  | 0.118 µM |  | EC50 [3, 13]: 0.119 µM
21 | CCc1nc(N)nc(N)c1-c1ccc(Cl)cc1 [Pyrimethamine, reference compound] |  | 0.2476 |  | 0.247 µM |  | Ex vivo bradyzoite plaques, normalised to DMSO = 100 ([4]; Constant treatment): 2.0 and 0.5 and 1.9; Ex vivo bradyzoite plaques, normalised to DMSO = 100 ([4]; Washout): 115.2 and 93 and 95.5; EC50 ([3]; Toxoplasma gondii, ME49-FLuc, 10-point dose-response, two biological replicates, read-out: EC50, T. gondii tachyzoite growth): 0.248 µM
22 | Nc1ccc(S(=O)(=O)Nc2ncccn2)cc1 [sulfadiazine, reference compound] |  |  |  |  |  | mean survival [5]: 10 days; Days (survival time of single mouse) [6]: 7 days and 9 days and 29 days and 11 days and 5 days; Survival event flag of single mouse (1 or 0) [6]: 1 and 0
